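Test compounds were applied to cells in 96-well plates for 48 hours at 5 doses. Abbreviation: GI50, concentration required for 50% inhibition of growth.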 Active and inactive are the calls of the source. Cut-off read from the data, not from the text of the source: active = GI50 up to about 1.1 µM and inactive = higher.
Legend:
Test in all cases: DTP human tumour cell line panel, 48 h
A498 = system: A498
A549 = system: A549
ACHN = system: ACHN
COLO 205 = system: COLO 205
EKVX = system: EKVX
HCC 2998 = system: HCC 2998
HCT-116 = system: HCT-116
HCT-15 = system: HCT-15
HOP-92 = system: HOP-92
LOX IMVI = system: LOX IMVI
NCI-H226 = system: NCI-H226
OVCAR-5 = system: OVCAR-5
OVCAR-8 = system: OVCAR-8
SF-268 = system: SF-268
SF-295 = system: SF-295
SK-MEL-5 = system: SK-MEL-5
TK-10 = system: TK-10
SR = system: SR

Structure (SMILES) | GI50 (A498) | GI50 (A549) | GI50 (ACHN) | GI50 (COLO 205) | GI50 (EKVX) | GI50 (HCC 2998) | GI50 (HCT-116) | GI50 (HCT-15) [µM] | GI50 (HOP-92) | GI50 (LOX IMVI) | GI50 (NCI-H226) | GI50 (OVCAR-5) | GI50 (OVCAR-8) | GI50 (SF-268) | GI50 (SF-295) | GI50 (SK-MEL-5) | GI50 (TK-10) | GI50 (SR)
Cc1ccc(NC(=O)CCc2nnc(N)o2)cc1 | > 100 µM (inactive) | > 100 µM (inactive) | > 100 µM (inactive) | > 100 µM (inactive) | > 100 µM (inactive) | > 100 µM (inactive) | > 100 µM (inactive) | > 100 | > 100 µM (inactive) | > 100 µM (inactive) | > 100 µM (inactive) | > 100 µM (inactive) | > 100 µM (inactive) | > 100 µM (inactive) | > 100 µM (inactive) | > 100 µM (inactive) | > 100 µM (inactive) | –
Cc1ccc(S(=O)(=O)ON/N=C2/C3OC3[C@@H]3CCCC[C@H]23)cc1 (stereo partly drawn) | – | > 100 µM (inactive) | > 100 µM (inactive) | > 100 µM (inactive) | > 100 µM (inactive) | 71.4 µM (inactive) | – | > 100 | > 100 µM (inactive) | – | > 100 µM (inactive) | – | 0.507 µM (active) | > 100 µM (inactive) | 1.19 µM (inactive) | – | > 100 µM (inactive) | > 100 µM (inactive)
O=C(O)/C=C/n1c2ccccc2c(=O)c2ccccc21 | > 100 µM (inactive) | > 100 µM (inactive) | > 100 µM (inactive) | > 100 µM (inactive) | > 100 µM (inactive) | > 100 µM (inactive) | > 100 µM (inactive) | > 100 | – | > 100 µM (inactive) | > 100 µM (inactive) | > 100 µM (inactive) | > 100 µM (inactive) | > 100 µM (inactive) | > 100 µM (inactive) | – | – | > 100 µM (inactive)
Nc1ccc(C2=Nc3ccccc3SC(c3ccccc3O)C2)cc1 (stereo not drawn) | 7.13 µM (inactive) | 51.2 µM (inactive) | 42.2 µM (inactive) | 45.1 µM (inactive) | 99.8 µM (inactive) | 32.1 µM (inactive) | – | 27.3 | – | 30.7 µM (inactive) | 33.3 µM (inactive) | > 100 µM (inactive) | 42.1 µM (inactive) | 33.7 µM (inactive) | 38 µM (inactive) | 26.1 µM (inactive) | > 100 µM (inactive) | –
Nc1ncnc2c1ncn2C1OC(CSC(F)F)C(O)C1O (stereo not drawn) | > 100 µM (inactive) | > 100 µM (inactive) | > 100 µM (inactive) | > 100 µM (inactive) | > 100 µM (inactive) | > 100 µM (inactive) | > 100 µM (inactive) | > 100 | > 100 µM (inactive) | > 100 µM (inactive) | > 100 µM (inactive) | > 100 µM (inactive) | > 100 µM (inactive) | > 100 µM (inactive) | > 100 µM (inactive) | > 100 µM (inactive) | > 100 µM (inactive) | –
CC(=O)Nc1ccc(C(=O)NN2C(=O)C(Cl)C2c2ccc([N+](=O)[O-])cc2)cc1 (stereo not drawn) | > 100 µM (inactive) | > 100 µM (inactive) | > 100 µM (inactive) | > 100 µM (inactive) | > 100 µM (inactive) | – | > 100 µM (inactive) | > 100 | > 100 µM (inactive) | > 100 µM (inactive) | > 100 µM (inactive) | > 100 µM (inactive) | > 100 µM (inactive) | > 100 µM (inactive) | > 100 µM (inactive) | > 100 µM (inactive) | > 100 µM (inactive) | –
COc1ccc(/C(Cl)=C(\C=O)c2ccc(Br)cc2)cc1OC | 88.9 µM (inactive) | 62.5 µM (inactive) | > 72.6 µM (inactive) | > 100 µM (inactive) | > 48.4 µM (inactive) | > 100 µM (inactive) | – | 25.1 | 17.7 µM (inactive) | 18.3 µM (inactive) | 19.5 µM (inactive) | > 100 µM (inactive) | 31.9 µM (inactive) | 23.2 µM (inactive) | 19.8 µM (inactive) | > 100 µM (inactive) | > 92.3 µM (inactive) | –
CCOC(=O)NC(=O)c1cn(CCN2CCNCC2)c(=O)[nH]c1=O | – | > 100 µM (inactive) | > 100 µM (inactive) | > 100 µM (inactive) | > 100 µM (inactive) | – | > 100 µM (inactive) | > 100 | > 100 µM (inactive) | > 100 µM (inactive) | > 100 µM (inactive) | > 100 µM (inactive) | > 100 µM (inactive) | > 100 µM (inactive) | > 100 µM (inactive) | > 100 µM (inactive) | > 100 µM (inactive) | > 100 µM (inactive)
O=S1(=O)CS(=O)(=O)OCCCCCO1 | > 100 µM (inactive) | > 100 µM (inactive) | > 100 µM (inactive) | > 100 µM (inactive) | > 100 µM (inactive) | > 100 µM (inactive) | > 100 µM (inactive) | > 100 | > 100 µM (inactive) | > 100 µM (inactive) | > 100 µM (inactive) | > 100 µM (inactive) | > 100 µM (inactive) | > 100 µM (inactive) | – | – | > 100 µM (inactive) | –
COc1ccc(CNc2cnc3cc(N)ccc3n2)cc1OC | – | > 100 µM (inactive) | > 100 µM (inactive) | > 100 µM (inactive) | > 100 µM (inactive) | > 100 µM (inactive) | > 100 µM (inactive) | > 100 | – | > 100 µM (inactive) | > 100 µM (inactive) | > 10 µM (inactive) | > 100 µM (inactive) | > 100 µM (inactive) | > 100 µM (inactive) | > 100 µM (inactive) | > 100 µM (inactive) | > 100 µM (inactive)
Cc1c(C(=O)c2ccccc2C(=O)O)c2ccccc2n1C | > 100 µM (inactive) | > 100 µM (inactive) | > 100 µM (inactive) | – | > 100 µM (inactive) | > 100 µM (inactive) | > 100 µM (inactive) | > 100 | – | – | > 100 µM (inactive) | > 100 µM (inactive) | > 100 µM (inactive) | – | > 100 µM (inactive) | > 100 µM (inactive) | > 100 µM (inactive) | –
CC(C)(C)C#COC(=O)c1ccccc1 | > 100 µM (inactive) | > 100 µM (inactive) | > 100 µM (inactive) | > 100 µM (inactive) | > 100 µM (inactive) | > 100 µM (inactive) | > 100 µM (inactive) | > 100 | – | > 100 µM (inactive) | > 100 µM (inactive) | > 100 µM (inactive) | > 100 µM (inactive) | > 100 µM (inactive) | > 100 µM (inactive) | > 100 µM (inactive) | – | > 100 µM (inactive)
FC(F)(F)c1ccc2nc(NCc3ccccc3)c(-c3ccccc3)nc2c1 | – | 26.9 µM (inactive) | 33.2 µM (inactive) | 37.2 µM (inactive) | 62.2 µM (inactive) | 29.9 µM (inactive) | 29 µM (inactive) | 25.6 | 0.521 µM (active) | 26.3 µM (inactive) | 37.8 µM (inactive) | 90.2 µM (inactive) | 86.3 µM (inactive) | 48.1 µM (inactive) | 36 µM (inactive) | – | 29.6 µM (inactive) | 24.9 µM (inactive)
C[C@H]1[C@H](C)CC[C@]2(C(=O)O)CCC3(COC(=O)/C=C/c4ccc(O)cc4)C(=CCC4[C@@]5(C)CC[C@H](O)C(C)(C)C5CC[C@]43C)[C@H]12 (stereo partly drawn) | 4.06 µM (inactive) | 2.61 µM (inactive) | 2.69 µM (inactive) | 3.99 µM (inactive) | 11 µM (inactive) | 5.45 µM (inactive) | 3.62 µM (inactive) | 4.62 | – | 5.24 µM (inactive) | 7.91 µM (inactive) | 14.8 µM (inactive) | 4.51 µM (inactive) | 4.67 µM (inactive) | 3.72 µM (inactive) | 11 µM (inactive) | 10.5 µM (inactive) | 3.91 µM (inactive)
CC(=O)OC1C[C@H]2C(OC(=O)c3ccccc3)C3C4(OC(C)=O)COC4C[C@H](OC(C)=O)[C@@]3(C)C(OC(C)=O)[C@H](OC(C)=O)C(=C1C)C2(C)C (stereo partly drawn) | 24.4 µM (inactive) | 31.2 µM (inactive) | 21 µM (inactive) | 42.7 µM (inactive) | 50.7 µM (inactive) | – | 40 µM (inactive) | 47 | – | 40.9 µM (inactive) | 34.1 µM (inactive) | > 100 µM (inactive) | 41.2 µM (inactive) | 24.9 µM (inactive) | 33.5 µM (inactive) | 26.3 µM (inactive) | 25.7 µM (inactive) | –
CC(C)C(CCOS(=O)(=O)O)CCC(C)[C@H]1[C@@H](O)C(O)C2[C@]3(O)C[C@@H](O)C4(O)C[C@@H](O)CC[C@]4(C)C3CC[C@@]21C (stereo partly drawn) | – | > 100 µM (inactive) | > 100 µM (inactive) | > 100 µM (inactive) | > 100 µM (inactive) | > 100 µM (inactive) | > 100 µM (inactive) | > 100 | > 100 µM (inactive) | > 100 µM (inactive) | > 100 µM (inactive) | – | > 100 µM (inactive) | > 100 µM (inactive) | > 100 µM (inactive) | > 100 µM (inactive) | > 100 µM (inactive) | > 100 µM (inactive)
Cc1c2cc[n+](C)cc2c(C)c2c1[nH]c1ccc(Oc3ccccc3)cc12 | – | 0.324 µM (active) | 2.05 µM (inactive) | 1.1 µM (active) | 3.61 µM (inactive) | 2.61 µM (inactive) | 1.54 µM (inactive) | 3.05 | 1.28 µM (inactive) | 2.09 µM (inactive) | 0.492 µM (active) | 3.31 µM (inactive) | 0.553 µM (active) | 0.738 µM (active) | 0.311 µM (active) | 0.794 µM (active) | – | –
c1ccc2nc(-c3ccc4c(c3)OCO4)ccc2c1 | – | 49.2 µM (inactive) | 26.5 µM (inactive) | 74.6 µM (inactive) | 24.9 µM (inactive) | 38.3 µM (inactive) | – | – | 2.8 µM (inactive) | 26.1 µM (inactive) | 21.6 µM (inactive) | 48.5 µM (inactive) | 43.5 µM (inactive) | 37.7 µM (inactive) | 46.7 µM (inactive) | – | 64 µM (inactive) | 16.7 µM (inactive)

— ChEMBL document CHEMBL1201862, “PubChem BioAssay data set” (2004)
